Test results taken from patent US12391737B2, “Soluble NPY2 receptor agonists” (Boehringer Ingelheim International GmbH, priority 2020, dated 2025).

Assays:
[1] = target: T1, Human Neuropeptide Y2 Receptor (Homo sapiens, UniProt P49146); test: Radioligand binding competition assay (RLB); conditions: Table 3, 125I-PYY(1-36) competition; read-out: Ki
T1 construct: purchased CHEMICON HTS066M
T1 sequence (P49146 1-381): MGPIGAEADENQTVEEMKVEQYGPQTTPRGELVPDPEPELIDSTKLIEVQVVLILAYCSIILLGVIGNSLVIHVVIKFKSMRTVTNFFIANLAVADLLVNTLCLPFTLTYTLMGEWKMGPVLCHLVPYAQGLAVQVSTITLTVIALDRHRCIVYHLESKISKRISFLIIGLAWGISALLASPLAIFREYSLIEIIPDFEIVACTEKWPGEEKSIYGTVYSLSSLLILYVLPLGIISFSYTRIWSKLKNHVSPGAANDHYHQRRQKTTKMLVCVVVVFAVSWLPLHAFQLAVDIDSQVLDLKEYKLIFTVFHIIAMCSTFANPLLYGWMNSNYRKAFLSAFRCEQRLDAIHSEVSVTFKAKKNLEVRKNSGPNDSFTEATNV
Summary of the method: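 Filtration binding assay on human Y2 receptor membrane preparation, 0.5 μg protein per well, in 50 mM HEPES pH 7.4 containing 5 mM MgCl2, 1 mM CaCl2 and 0.2% ovalbumin. Plates shake 2 h at room temperature before harvest and scintillation counting.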

Solubility determination = conditions: for Sol6: pH 6; for Sol7: pH 7
Summary of the method: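 Shake-flask style: 10 mg/ml peptide (TFA salt), 0.1 M sodium diphosphate pH 6.4/7.0, 600 rpm, 2 h, RT; filter; dilute 1 mg/ml in 50% MeCN; RP-UPLC, 0–100% B over 2 min, 50 °C. Solubility = sample/control area ratio. Final pH recorded.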

Structure (SMILES): CC(C)CC(=O)N[C@@H](C)C(=O)N1CCC[C@H]1C(=O)N[C@@H](C)C(=O)N[C@@H](CCCCNC(=O)CCCCCNC(=O)CC[C@H](NC(=O)CCCCCCCCCCCCCCCCC(=O)O)C(=O)O)C(=O)N1CCC[C@H]1C(=O)N[C@@H](CCC(=O)O)C(=O)N[C@@H](CCC(=O)O)C(=O)N[C@@H](C)C(=O)N[C@@H](C)C(=O)N[C@@H](CCC(=O)O)C(=O)N1CCC[C@H]1C(=O)N[C@@H](CCC(=O)O)C(=O)N[C@@H](CCC(=O)O)C(=O)N[C@@H](CC(C)C)C(=O)N[C@@H](CCC(N)=O)C(=O)N[C@@H](CCCNC(=N)N)C(=O)N[C@@H](Cc1ccc(O)cc1)C(=O)N[C@@H](Cc1ccc(O)cc1)C(=O)N[C@H](C(=O)N[C@@H](C)C(=O)N[C@@H](CC(C)C)C(=O)N[C@@H](CCCNC(=N)N)C(=O)N[C@@H](Cc1c[nH]cn1)C(=O)N[C@@H](Cc1ccc(O)cc1)C(=O)N[C@@H](Cc1ccc(O)cc1)C(=O)N[C@@H](CC(N)=O)C(=O)N[C@@H](Cc1c[nH]c2ccccc12)C(=O)N[C@@H](CC(C)C)C(=O)N[C@H](C(=O)N[C@@H](CCCNC(=N)N)C(=O)N[C@@H](CCC(N)=O)C(=O)N[C@@H](CCCNC(=N)N)C(=O)N[C@@H](Cc1ccc(O)cc1)C(N)=O)[C@@H](C)O)C(C)C [Compound 161, N{alpha-4}-(3-methylbutanoyl)-N{epsilon-7}-(6-[(4S)-4-carboxy-4-(17-carboxyheptadecanamido)butanamido]hexanoyl)-[4A,6A,7K,9E,11A,13E,18Q,22V,23A,28Y,30W,31L]-hPYY(4-36)]
- Ki [1]: 4 nM
- Sol6 (Solubility determination): 0.2 mg/mL
- Sol7 (Solubility determination): >10.0 mg/mL

Structure (SMILES): CC(C)CC(=O)N[C@@H](C)C(=O)N1CCC[C@H]1C(=O)N[C@@H](CCC(=O)O)C(=O)N[C@@H](CCCCNC(=O)CCCCCNC(=O)CC[C@H](NC(=O)CCCCCCCCCCCCCCCCC(=O)O)C(=O)O)C(=O)N1CCC[C@H]1C(=O)N[C@@H](CCC(=O)O)C(=O)N[C@@H](CCC(=O)O)C(=O)N[C@@H](CC(=O)O)C(=O)N[C@@H](C)C(=O)N[C@H](C(=O)N1CCC[C@H]1C(=O)N[C@@H](CCC(=O)O)C(=O)N[C@@H](CCC(=O)O)C(=O)N[C@@H](CCC(=O)O)C(=O)N[C@@H](CCC(N)=O)C(=O)N[C@@H](CCCNC(=N)N)C(=O)N[C@@H](Cc1ccc(O)cc1)C(=O)N[C@@H](Cc1ccc(O)cc1)C(=O)N[C@H](C(=O)N[C@@H](CO)C(=O)N[C@@H](CC(C)C)C(=O)N[C@@H](CCCNC(=N)N)C(=O)N[C@@H](Cc1c[nH]cn1)C(=O)N[C@@H](Cc1ccc(O)cc1)C(=O)N[C@@H](Cc1ccc(O)cc1)C(=O)N[C@@H](CC(N)=O)C(=O)N[C@@H](Cc1c[nH]c2ccccc12)C(=O)N[C@@H](CC(C)C)C(=O)N[C@H](C(=O)N[C@@H](CCCNC(=N)N)C(=O)N[C@@H](CCC(N)=O)C(=O)N[C@@H](CCCNC(=N)N)C(=O)N[C@@H](Cc1ccc(O)cc1)C(N)=O)[C@@H](C)O)C(C)C)[C@@H](C)O [Compound 162, N{alpha-4}-(3-methylbutanoyl)-N{epsilon-7}-(6-[(4S)-4-carboxy-4-(17-carboxyheptadecanamido)butanamido]hexanoyl)-[4A,7K,9E,13T,17E,18Q,22V,28Y,30W,31L]-hPYY(4-36)]
- Ki [1]: 14.9 nM
- Sol6 (Solubility determination): 9.0 mg/mL
- Sol7 (Solubility determination): 9.3 mg/mL

Structure (SMILES): CC[C@H](C)[C@H](NC(=O)[C@H](CCC(=O)O)NC(=O)[C@H](CCC(=O)O)NC(=O)[C@@H]1CCCN1C(=O)[C@@H](NC(=O)[C@H](C)NC(=O)[C@H](CC(=O)O)NC(=O)[C@H](CCC(=O)O)NC(=O)[C@H](CCC(=O)O)NC(=O)[C@@H]1CCCN1C(=O)[C@H](CCCCNC(=O)CCCCCNC(=O)CC[C@H](NC(=O)CCCCCCCCCCCCCCCCC(=O)O)C(=O)O)NC(=O)[C@H](CCC(=O)O)NC(=O)[C@@H]1CCCN1C(=O)[C@H](C)NC(=O)CC(C)C)[C@@H](C)O)C(=O)N[C@@H](CCC(N)=O)C(=O)N[C@@H](CCCNC(=N)N)C(=O)N[C@@H](Cc1ccc(O)cc1)C(=O)N[C@@H](Cc1ccc(O)cc1)C(=O)N[C@@H](CCC(N)=O)C(=O)N[C@@H](CO)C(=O)N[C@@H](CC(C)C)C(=O)N[C@@H](CCCNC(=N)N)C(=O)N[C@@H](Cc1c[nH]cn1)C(=O)N[C@@H](Cc1ccc(O)cc1)C(=O)N[C@@H](Cc1ccc(O)cc1)C(=O)N[C@@H](CC(N)=O)C(=O)N[C@@H](Cc1c[nH]c2ccccc12)C(=O)N[C@@H](CC(C)C)C(=O)N[C@H](C(=O)N[C@@H](CCCNC(=N)N)C(=O)N[C@@H](CCC(N)=O)C(=O)N[C@@H](CCCNC(=N)N)C(=O)N[C@@H](Cc1ccc(O)cc1)C(N)=O)[C@@H](C)O [Compound 164, N{alpha-4}-(3-methylbutanoyl)-N{epsilon-7}-(6-[(4S)-4-carboxy-4-(17-carboxyheptadecanamido)butanamido]hexanoyl)-[4A,7K,9E,13T,17I,18Q,22Q,28Y,30W,31L]-hPYY(4-36)]
- Ki [1]: 2.8 nM
- Sol6 (Solubility determination): 9.3 mg/mL
- Sol7 (Solubility determination): 9.2 mg/mL

Structure (SMILES): CC(C)CC(=O)N[C@@H](C)C(=O)N1CCC[C@H]1C(=O)N[C@@H](C)C(=O)N[C@@H](CCCCNC(=O)CCCCCNC(=O)CC[C@H](NC(=O)CCCCCCCCCCCCCCCCC(=O)O)C(=O)O)C(=O)N1CCC[C@H]1C(=O)N[C@@H](CCC(=O)O)C(=O)N[C@@H](CCC(=O)O)C(=O)N[C@@H](CC(=O)O)C(=O)N[C@@H](C)C(=O)N[C@@H](CO)C(=O)N1CCC[C@H]1C(=O)N[C@@H](CCC(=O)O)C(=O)N[C@@H](CCC(=O)O)C(=O)N[C@@H](CC(C)C)C(=O)N[C@@H](CCC(N)=O)C(=O)N[C@@H](CCCNC(=N)N)C(=O)N[C@@H](Cc1ccc(O)cc1)C(=O)N[C@@H](Cc1ccc(O)cc1)C(=O)N[C@H](C(=O)N[C@@H](CCC(=O)O)C(=O)N[C@@H](CC(C)C)C(=O)N[C@@H](CCCNC(=N)N)C(=O)N[C@@H](Cc1c[nH]cn1)C(=O)N[C@@H](Cc1ccc(O)cc1)C(=O)N[C@@H](Cc1ccc(O)cc1)C(=O)N[C@@H](CC(N)=O)C(=O)N[C@@H](Cc1c[nH]c2ccccc12)C(=O)N[C@@H](CC(C)C)C(=O)N[C@H](C(=O)N[C@@H](CCCNC(=N)N)C(=O)N[C@@H](CCC(N)=O)C(=O)N[C@@H](CCCNC(=N)N)C(=O)N[C@@H](Cc1ccc(O)cc1)C(N)=O)[C@@H](C)O)C(C)C [Compound 166, N{alpha-4}-(3-methylbutanoyl)-N{epsilon-7}-(6-[(4S)-4-carboxy-4-(17-carboxyheptadecanamido)butanamido]hexanoyl)-[4A,6A,7K,9E,18Q,22V,23E,28Y,30W,31L]-hPYY(4-36)]
- Ki [1]: 2.05 nM
- Sol6 (Solubility determination): 9.2 mg/mL
- Sol7 (Solubility determination): 9.7 mg/mL

Structure (SMILES): CC[C@H](C)[C@H](NC(=O)[C@H](CCC(=O)O)NC(=O)[C@H](CCC(=O)O)NC(=O)[C@@H]1CCCN1C(=O)[C@H](CCC(=O)O)NC(=O)[C@H](C)NC(=O)[C@H](C)NC(=O)[C@H](CCC(=O)O)NC(=O)[C@H](CCC(=O)O)NC(=O)[C@@H]1CCCN1C(=O)[C@H](CCCCNC(=O)CCCCCNC(=O)CC[C@H](NC(=O)CCCCCCCCCCCCCCCCC(=O)O)C(=O)O)NC(=O)[C@H](C)NC(=O)[C@@H]1CCCN1C(=O)[C@H](C)NC(=O)CC(C)C)C(=O)N[C@@H](CCC(N)=O)C(=O)N[C@@H](CCCNC(=N)N)C(=O)N[C@@H](Cc1ccc(O)cc1)C(=O)N[C@@H](Cc1ccc(O)cc1)C(=O)N[C@H](C(=O)N[C@@H](C)C(=O)N[C@@H](CC(C)C)C(=O)N[C@@H](CCCNC(=N)N)C(=O)N[C@@H](Cc1c[nH]cn1)C(=O)N[C@@H](Cc1ccc(O)cc1)C(=O)N[C@@H](Cc1ccc(O)cc1)C(=O)N[C@@H](CC(N)=O)C(=O)N[C@@H](Cc1c[nH]c2ccccc12)C(=O)N[C@@H](CC(C)C)C(=O)N[C@H](C(=O)N[C@@H](CCCNC(=N)N)C(=O)N[C@@H](CCC(N)=O)C(=O)N[C@@H](CCCNC(=N)N)C(=O)N[C@@H](Cc1ccc(O)cc1)C(N)=O)[C@@H](C)O)C(C)C [Compound 167, N{alpha-4}-(3-methylbutanoyl)-N{epsilon-7}-(6-[(4S)-4-carboxy-4-(17-carboxyheptadecanamido)butanamido]hexanoyl)-[4A,6A,7K,9E,11A,13E,17I,18Q,22V,23A,28Y,30W,31L]-hPYY(4-36)]
- Ki [1]: 4.58 nM
- Sol6 (Solubility determination): 0.0 mg/mL
- Sol7 (Solubility determination): 9.5 mg/mL

Structure (SMILES): CC(C)CC(=O)N[C@@H](C)C(=O)N1CCC[C@H]1C(=O)N[C@@H](CCC(=O)O)C(=O)N[C@@H](CCCCNC(=O)CCCCCNC(=O)CC[C@H](NC(=O)CCCCCCCCCCCCCCCCC(=O)O)C(=O)O)C(=O)N1CCC[C@H]1C(=O)N[C@@H](CCC(=O)O)C(=O)N[C@@H](CCC(=O)O)C(=O)N[C@@H](CC(=O)O)C(=O)N[C@@H](C)C(=O)N[C@@H](CCC(=O)O)C(=O)N1CCC[C@H]1C(=O)N[C@@H](CCC(=O)O)C(=O)N[C@@H](CCC(=O)O)C(=O)N[C@@H](CC(C)C)C(=O)N[C@@H](CCC(N)=O)C(=O)N[C@@H](C)C(=O)N[C@@H](Cc1ccc(O)cc1)C(=O)N[C@@H](Cc1ccc(O)cc1)C(=O)N[C@H](C(=O)N[C@@H](CO)C(=O)N[C@@H](CC(C)C)C(=O)N[C@@H](CCCNC(=N)N)C(=O)N[C@@H](Cc1c[nH]cn1)C(=O)N[C@@H](Cc1ccc(O)cc1)C(=O)N[C@@H](Cc1ccc(O)cc1)C(=O)N[C@@H](CC(N)=O)C(=O)N[C@@H](Cc1c[nH]c2ccccc12)C(=O)N[C@@H](CC(C)C)C(=O)N[C@H](C(=O)N[C@@H](CCCNC(=N)N)C(=O)N[C@@H](CCC(N)=O)C(=O)N[C@@H](CCCNC(=N)N)C(=O)N[C@@H](Cc1ccc(O)cc1)C(N)=O)[C@@H](C)O)C(C)C [Compound 169, N{alpha-4}-(3-methylbutanoyl)-N{epsilon-7}-(6-[(4S)-4-carboxy-4-(17-carboxyheptadecanamido)butanamido]hexanoyl)-[4A,7K,9E,13E,18Q,19A,22V,28Y,30W,31L]-hPYY(4-36)]
- Ki [1]: 5.82 nM
- Sol6 (Solubility determination): 9.7 mg/mL
- Sol7 (Solubility determination): 9.8 mg/mL
